Results reported in publication PMC7366380, “Discovery of a Potent and Selective Covalent Inhibitor and Activity-Based Probe for the Deubiquitylating Enzyme UCHL1, with Antifibrotic Activity” (Journal of the American Chemical Society, 2020).
pIC50: −log10 of the molar value. “And” between values parts separate entries of the source, which are not always exact repeats. Equal entries are not always repeated. Each block holds one molecule with its values, some of them ahead of it.

How the values were obtained:
USP34 = USP34 (Homo sapiens, UniProt Q70CQ2); experiment: Biochemical DUB selectivity profiling assay: USP34; conditions: Ub-Rho110 400 nM, buffer B; read-out: Biochemical IC50 range, USP34
Sequence of USP34 (Q70CQ2 whole entry): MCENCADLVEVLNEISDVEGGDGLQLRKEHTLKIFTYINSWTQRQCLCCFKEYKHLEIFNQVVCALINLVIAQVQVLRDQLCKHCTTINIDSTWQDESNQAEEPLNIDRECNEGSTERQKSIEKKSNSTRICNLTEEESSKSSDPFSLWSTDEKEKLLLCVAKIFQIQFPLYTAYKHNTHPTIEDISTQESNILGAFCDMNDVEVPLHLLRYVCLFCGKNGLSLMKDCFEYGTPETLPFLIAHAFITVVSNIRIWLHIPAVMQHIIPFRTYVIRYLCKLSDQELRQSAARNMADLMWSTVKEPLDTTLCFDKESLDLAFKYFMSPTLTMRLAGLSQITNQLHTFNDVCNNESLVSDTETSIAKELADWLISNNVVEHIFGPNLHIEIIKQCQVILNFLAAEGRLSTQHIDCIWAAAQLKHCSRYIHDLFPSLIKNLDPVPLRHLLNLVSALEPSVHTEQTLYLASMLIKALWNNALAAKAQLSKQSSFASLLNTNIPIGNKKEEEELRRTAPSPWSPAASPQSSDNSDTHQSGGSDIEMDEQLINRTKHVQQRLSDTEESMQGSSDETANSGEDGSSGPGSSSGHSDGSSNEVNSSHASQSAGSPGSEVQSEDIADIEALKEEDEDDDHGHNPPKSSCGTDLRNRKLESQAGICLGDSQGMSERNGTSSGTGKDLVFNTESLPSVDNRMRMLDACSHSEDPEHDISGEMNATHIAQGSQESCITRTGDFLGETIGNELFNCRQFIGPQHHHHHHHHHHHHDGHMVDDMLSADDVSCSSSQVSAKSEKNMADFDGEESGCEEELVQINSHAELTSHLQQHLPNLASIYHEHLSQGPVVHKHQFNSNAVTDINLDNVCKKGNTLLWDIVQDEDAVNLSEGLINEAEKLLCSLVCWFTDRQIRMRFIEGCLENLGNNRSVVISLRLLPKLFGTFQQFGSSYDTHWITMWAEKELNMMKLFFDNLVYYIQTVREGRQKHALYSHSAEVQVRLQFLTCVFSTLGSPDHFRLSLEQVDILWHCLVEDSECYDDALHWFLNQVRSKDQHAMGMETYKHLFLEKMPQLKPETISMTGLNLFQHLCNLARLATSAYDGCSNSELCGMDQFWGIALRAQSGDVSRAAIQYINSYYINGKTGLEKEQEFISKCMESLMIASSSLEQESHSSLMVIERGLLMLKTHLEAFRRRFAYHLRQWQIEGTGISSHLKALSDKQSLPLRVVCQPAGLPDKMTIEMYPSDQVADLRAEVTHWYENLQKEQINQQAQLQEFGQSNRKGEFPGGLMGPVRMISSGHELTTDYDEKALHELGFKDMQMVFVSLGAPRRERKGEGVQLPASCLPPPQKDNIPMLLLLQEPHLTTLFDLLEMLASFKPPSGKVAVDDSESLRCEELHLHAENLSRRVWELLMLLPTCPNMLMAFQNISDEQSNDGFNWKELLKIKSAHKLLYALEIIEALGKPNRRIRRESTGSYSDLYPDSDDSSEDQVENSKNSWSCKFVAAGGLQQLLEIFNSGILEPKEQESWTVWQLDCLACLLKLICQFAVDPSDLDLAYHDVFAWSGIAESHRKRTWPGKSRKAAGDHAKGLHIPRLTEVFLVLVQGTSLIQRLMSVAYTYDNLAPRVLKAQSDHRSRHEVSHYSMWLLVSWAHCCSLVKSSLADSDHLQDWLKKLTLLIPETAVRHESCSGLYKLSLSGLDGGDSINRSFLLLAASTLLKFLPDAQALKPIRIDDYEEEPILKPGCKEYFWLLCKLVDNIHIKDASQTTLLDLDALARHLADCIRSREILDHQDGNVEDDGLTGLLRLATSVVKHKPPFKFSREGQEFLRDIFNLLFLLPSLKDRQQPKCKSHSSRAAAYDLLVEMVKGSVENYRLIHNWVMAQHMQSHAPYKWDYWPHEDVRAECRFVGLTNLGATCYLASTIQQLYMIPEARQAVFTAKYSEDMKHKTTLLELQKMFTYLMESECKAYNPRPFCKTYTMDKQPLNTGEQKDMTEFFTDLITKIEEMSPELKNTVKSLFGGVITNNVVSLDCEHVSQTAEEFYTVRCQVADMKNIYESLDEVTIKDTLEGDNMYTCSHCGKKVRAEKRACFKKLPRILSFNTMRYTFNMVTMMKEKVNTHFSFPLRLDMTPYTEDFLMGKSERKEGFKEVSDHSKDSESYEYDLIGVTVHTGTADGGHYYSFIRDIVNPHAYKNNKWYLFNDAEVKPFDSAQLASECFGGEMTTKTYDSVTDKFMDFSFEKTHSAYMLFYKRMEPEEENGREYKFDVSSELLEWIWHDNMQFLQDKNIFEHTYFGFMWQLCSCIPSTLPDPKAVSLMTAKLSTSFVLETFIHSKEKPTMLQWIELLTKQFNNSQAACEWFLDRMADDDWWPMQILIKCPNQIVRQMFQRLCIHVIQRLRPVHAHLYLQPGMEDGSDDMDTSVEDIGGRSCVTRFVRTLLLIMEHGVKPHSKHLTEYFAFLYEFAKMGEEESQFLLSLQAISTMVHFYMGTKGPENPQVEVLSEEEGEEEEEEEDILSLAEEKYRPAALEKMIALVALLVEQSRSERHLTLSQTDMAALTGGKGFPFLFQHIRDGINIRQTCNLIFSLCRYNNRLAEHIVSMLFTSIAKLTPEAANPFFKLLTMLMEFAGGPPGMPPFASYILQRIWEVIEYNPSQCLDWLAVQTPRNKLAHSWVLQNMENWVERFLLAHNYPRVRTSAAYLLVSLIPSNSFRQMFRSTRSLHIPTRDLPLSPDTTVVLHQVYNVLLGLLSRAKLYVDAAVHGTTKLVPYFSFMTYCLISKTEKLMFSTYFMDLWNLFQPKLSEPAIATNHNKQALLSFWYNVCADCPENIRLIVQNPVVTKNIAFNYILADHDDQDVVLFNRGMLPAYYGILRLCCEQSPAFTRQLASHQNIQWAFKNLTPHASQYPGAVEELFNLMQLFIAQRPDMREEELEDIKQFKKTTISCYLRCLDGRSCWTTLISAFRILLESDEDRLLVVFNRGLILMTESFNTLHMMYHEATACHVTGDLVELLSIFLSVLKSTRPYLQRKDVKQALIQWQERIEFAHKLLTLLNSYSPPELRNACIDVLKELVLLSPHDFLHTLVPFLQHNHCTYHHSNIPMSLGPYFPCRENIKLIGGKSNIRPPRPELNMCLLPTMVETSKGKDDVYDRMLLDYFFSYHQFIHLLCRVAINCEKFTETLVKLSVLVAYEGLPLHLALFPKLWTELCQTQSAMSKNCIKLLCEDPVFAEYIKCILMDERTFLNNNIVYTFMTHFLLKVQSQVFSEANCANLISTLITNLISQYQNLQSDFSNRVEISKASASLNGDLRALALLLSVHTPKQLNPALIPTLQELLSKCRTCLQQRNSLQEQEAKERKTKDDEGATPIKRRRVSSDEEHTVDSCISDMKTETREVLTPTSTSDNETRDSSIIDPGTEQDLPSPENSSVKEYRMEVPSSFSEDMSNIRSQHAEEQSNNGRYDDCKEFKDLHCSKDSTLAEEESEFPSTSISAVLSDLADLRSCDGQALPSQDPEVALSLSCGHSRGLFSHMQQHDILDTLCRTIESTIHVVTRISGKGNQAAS
Protocol: DUB Assay Substrate Substrate
Buffer Concentration (nM) […]
Sepharose® 4B resin (GE Healthcare).
10 kDa molecular weight cut-off (MWCO)).
Fractions containing protein
Protein concentration was […]
reaction volume of 21 μL. […]
compound (final concentration 5 nM).
IC50 values were determined
Biochemical DUB selectivity profiling assays […]
in 40 µL total reaction volume.

[1] = target: T1, DUBs and other proteins in HEK293 cells (Homo sapiens, UniProt Q96RU2); experiment: In-cell proteome-wide competitive ABPP, HEK293: other DUBs and proteins; conditions: replicates A-C; for Log2 reporter intensity values: USP28: competition with ABP 2, DMSO substract (FC); for Log2 reporter intensity values: USP28, DMSO subtracted
T1 sequence (Q96RU2 1-1077): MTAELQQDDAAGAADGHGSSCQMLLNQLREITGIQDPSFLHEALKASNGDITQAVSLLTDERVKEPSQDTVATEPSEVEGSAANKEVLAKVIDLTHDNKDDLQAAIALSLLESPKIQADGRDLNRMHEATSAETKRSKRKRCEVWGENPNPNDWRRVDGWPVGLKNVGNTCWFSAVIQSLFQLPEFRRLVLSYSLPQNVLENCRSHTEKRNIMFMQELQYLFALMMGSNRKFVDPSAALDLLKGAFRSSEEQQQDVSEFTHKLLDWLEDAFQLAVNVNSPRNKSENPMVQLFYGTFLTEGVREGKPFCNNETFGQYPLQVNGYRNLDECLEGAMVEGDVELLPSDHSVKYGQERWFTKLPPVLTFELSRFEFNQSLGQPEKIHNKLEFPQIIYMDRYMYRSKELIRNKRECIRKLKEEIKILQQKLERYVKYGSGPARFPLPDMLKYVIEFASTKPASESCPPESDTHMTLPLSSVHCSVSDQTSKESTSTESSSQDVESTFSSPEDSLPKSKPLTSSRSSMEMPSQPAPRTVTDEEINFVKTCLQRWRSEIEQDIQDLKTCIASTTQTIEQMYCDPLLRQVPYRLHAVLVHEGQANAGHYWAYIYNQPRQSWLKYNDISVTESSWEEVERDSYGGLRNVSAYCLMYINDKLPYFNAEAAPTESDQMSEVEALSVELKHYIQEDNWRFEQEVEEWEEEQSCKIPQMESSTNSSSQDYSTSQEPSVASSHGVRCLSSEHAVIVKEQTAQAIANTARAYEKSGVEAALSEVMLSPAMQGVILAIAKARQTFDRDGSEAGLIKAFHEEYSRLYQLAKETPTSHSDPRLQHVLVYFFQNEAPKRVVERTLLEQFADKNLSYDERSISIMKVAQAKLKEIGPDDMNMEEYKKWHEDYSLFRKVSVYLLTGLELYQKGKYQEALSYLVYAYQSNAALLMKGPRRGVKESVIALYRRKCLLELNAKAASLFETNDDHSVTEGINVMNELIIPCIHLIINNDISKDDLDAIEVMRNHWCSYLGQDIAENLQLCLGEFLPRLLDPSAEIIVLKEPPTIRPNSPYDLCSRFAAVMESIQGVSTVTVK

[2] = target: T2, DUBs and other proteins in HEK293 cells (Homo sapiens, UniProt P45974); experiment: as above; conditions: replicates A-C; for Log2 reporter intensity values: USP5: DMSO substract (FC); for Log2 reporter intensity values: USP5, DMSO subtracted
T2 sequence (P45974 1-858): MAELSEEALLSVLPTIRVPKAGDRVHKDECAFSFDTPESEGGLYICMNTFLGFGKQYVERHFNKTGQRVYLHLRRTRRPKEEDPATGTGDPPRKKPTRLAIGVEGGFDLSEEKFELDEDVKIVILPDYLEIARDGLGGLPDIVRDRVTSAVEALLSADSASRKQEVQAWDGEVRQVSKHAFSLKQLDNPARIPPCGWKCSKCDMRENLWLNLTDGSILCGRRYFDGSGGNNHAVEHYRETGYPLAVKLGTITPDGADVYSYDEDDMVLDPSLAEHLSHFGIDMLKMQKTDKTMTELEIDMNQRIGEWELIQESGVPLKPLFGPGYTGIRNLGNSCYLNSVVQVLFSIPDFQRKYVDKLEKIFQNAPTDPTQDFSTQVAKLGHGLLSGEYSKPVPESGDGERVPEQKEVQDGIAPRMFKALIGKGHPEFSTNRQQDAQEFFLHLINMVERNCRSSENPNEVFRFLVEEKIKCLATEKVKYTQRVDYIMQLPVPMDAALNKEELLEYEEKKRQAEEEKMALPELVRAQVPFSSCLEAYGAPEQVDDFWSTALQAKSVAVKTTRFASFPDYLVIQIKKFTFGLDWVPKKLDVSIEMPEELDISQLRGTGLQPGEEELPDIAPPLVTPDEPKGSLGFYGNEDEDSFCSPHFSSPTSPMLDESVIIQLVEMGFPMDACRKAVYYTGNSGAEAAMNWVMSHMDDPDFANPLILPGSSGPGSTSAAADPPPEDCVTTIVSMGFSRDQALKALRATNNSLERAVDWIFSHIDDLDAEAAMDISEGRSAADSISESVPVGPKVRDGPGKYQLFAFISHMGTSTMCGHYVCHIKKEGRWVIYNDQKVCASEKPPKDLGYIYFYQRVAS

UCHL1 = target: T3, UCHL1 (Homo sapiens, UniProt P09936); experiment: biochemical
T3 sequence (P09936 1-223): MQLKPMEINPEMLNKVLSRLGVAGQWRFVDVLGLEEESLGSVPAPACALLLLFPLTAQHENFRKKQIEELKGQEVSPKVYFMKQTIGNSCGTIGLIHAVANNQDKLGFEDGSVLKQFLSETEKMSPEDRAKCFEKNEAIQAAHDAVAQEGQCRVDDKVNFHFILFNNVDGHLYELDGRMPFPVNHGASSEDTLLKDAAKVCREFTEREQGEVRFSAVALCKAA

[3] = Biochemical IC50 range, UCHL1, Ub-Lys-TAMRA 50 nM, buffer A
[4] = UCHL1 IC50 (FP, 95% CI), UCHL1 5 nM, 30 min preincubation, Ub-Lys-TAMRA 50 nM

SMILES: CC(=O)O/N=C1\C(=O)N(Cc2cc(Cl)ccc2Cl)c2ccc(Cl)cc21 [LDN-57444, reference compound]
pIC50 (USP34): < 5.00

SMILES: CC(=O)O/N=C1\C(=O)N(Cc2cc(Cl)ccc2Cl)c2ccc(Cl)cc21 [LDN]
Log2 reporter intensity values: USP28 ([1]; LDN at 5 μM): 1.021 and 0.7867 and 1.08
Log2 reporter intensity values: USP28 ([1]; LDN at 25 μM): 0.7474 and 0.7545 and 1.193
Log2 reporter intensity values ([1]; LDN at 5 μM): 0.03026 and -0.3461 and 0.1114
Log2 reporter intensity values ([1]; LDN at 25 μM): -0.42 and -0.4063 and 0.2545
Log2 reporter intensity values ([1]; LDN_5 μM): -0.01852 and -0.253 and 0.04055
Log2 reporter intensity values ([1]; LDN_25 μM): -0.2923 and -0.2852 and 0.1532
Log2 reporter intensity values: USP5 ([2]; LDN at 5 μM, competition with ABP 2): 1.037 and 0.9788 and 0.9532
Log2 reporter intensity values: USP5 ([2]; LDN at 25 μM, competition with ABP 2): 1.021 and 0.9648 and 0.9864
Log2 reporter intensity values ([2]; LDN at 5 μM): 0.05306 and -0.03094 and -0.06922
Log2 reporter intensity values ([2]; LDN at 25 μM): 0.02936 and -0.0517 and -0.01971
Log2 reporter intensity values ([2]; LDN_5 μM): 0.03714 and -0.02154 and -0.04717
Log2 reporter intensity values ([2]; LDN_25 μM): 0.02024 and -0.03553 and -0.01389

pIC50 (USP34): < 5.00
pIC50 (UCHL1; [3]): < 5.00
pIC50 (UCHL1; UCHL1 IC50 (FP), UCHL1 5 nM, 30 min preincubation, Ub-Lys-TAMRA 50 nM, bound = maximum assay concentration): < 4.00
Log2 reporter intensity values: USP28 ([1]; 3 at 1 μM): 1.351 and 1.11 and 0.8433
Log2 reporter intensity values: USP28 ([1]; 3 at 4 μM): 0.6356 and 0.4265 and 0.9775
Log2 reporter intensity values ([1]; 3_1 μM): 0.3111 and 0.07023 and -0.1965
Log2 reporter intensity values ([1]; 3_4 μM): -0.4041 and -0.6132 and -0.06225
Log2 reporter intensity values ([1]; 3 at 1 μM): 0.4339 and 0.1505 and -0.246
Log2 reporter intensity values ([1]; 3 at 4 μM): -0.6539 and -1.229 and -0.03288
Log2 reporter intensity values: USP5 ([2]; 3 at 1 μM, competition with ABP 2): 0.9394 and 0.9901 and 0.9848
Log2 reporter intensity values: USP5 ([2]; 3 at 4 μM, competition with ABP 2): 1.005 and 1.031 and 1.063
Log2 reporter intensity values ([2]; 3_1 μM): -0.06093 and -0.01022 and -0.01553
Log2 reporter intensity values ([2]; 3_4 μM): 0.004396 and 0.03114 and 0.06231
Log2 reporter intensity values ([2]; 3 at 1 μM): -0.0902 and -0.01435 and -0.02211
Log2 reporter intensity values ([2]; 3 at 4 μM): 0.006795 and 0.04469 and 0.08765
SMILES: N#CN1CCC[C@@H]1C(=O)N1CCc2c(-c3c[nH]c4ncccc34)cccc21 [Compound 3]

pIC50 (USP34): 5.00 to 6.00
pIC50 (UCHL1; [3]): > 7.00
pIC50 (UCHL1; [4]): 7.05
Log2 reporter intensity values: USP28 ([1]; 1 at 1 μM): 0.9959 and 0.8739 and 1.601
Log2 reporter intensity values: USP28 ([1]; 1 at 4 μM): 1.351 and 1.583 and 1.105
Log2 reporter intensity values ([1]; 1_1 μM): -0.04385 and -0.1658 and 0.561
Log2 reporter intensity values ([1]; 1_4 μM): 0.3117 and 0.5434 and 0.06533
Log2 reporter intensity values ([1]; 1 at 1 μM): -0.005982 and -0.1944 and 0.6787
Log2 reporter intensity values ([1]; 1 at 4 μM): 0.4345 and 0.6627 and 0.1441
Log2 reporter intensity values: USP5 ([2]; 1 at 1 μM, competition with ABP 2): 0.9731 and 0.9825 and 0.9558
Log2 reporter intensity values: USP5 ([2]; 1 at 4 μM, competition with ABP 2): 0.9723 and 0.9393 and 0.9714
Log2 reporter intensity values ([2]; 1_1 μM): -0.02722 and -0.01785 and -0.04454
Log2 reporter intensity values ([2]; 1_4 μM): -0.02801 and -0.06107 and -0.02897
Log2 reporter intensity values ([2]; 1 at 1 μM): -0.03934 and -0.0255 and -0.06525
Log2 reporter intensity values ([2]; 1 at 4 μM): -0.04051 and -0.09041 and -0.04193
SMILES: N#CN1CCC[C@H]1C(=O)N1CCc2c(-c3c[nH]c4ncccc34)cccc21 [Compound 1]

pIC50 (USP34): 5.00 to 6.00
pIC50 (UCHL1; [3]): > 7.00
pIC50 (UCHL1; [4]): 7.42
Log2 reporter intensity values: USP5 ([2]; 20 nM ABP 2 alone): 0.9172 and 0.9432 and 0.9583
SMILES: C#Cc1cnc2[nH]cc(-c3cccc4c3CCN4C(=O)[C@@H]3CCCN3C#N)c2c1 [Compound 2]
Log2 reporter intensity values ([2]; 20 nM ABP 2): -0.1247 and -0.08438 and -0.06148 and -0.08313 and -0.05714
